# Bridge positions count the residues as written; N and C are the ends. Square brackets hold non-standard residues; d marks the D form. Side chains are listed from the residue outwards. Peptide text beside a SMILES is read from it. I, II: the chains in the order shown. * marks the point of attachment. Stearoyl = CCCCCCCCCCCCCCCCCC(=O)*; Palmitoyl = CCCCCCCCCCCCCCCC(=O)*
# Experiments:
# HeLa cells = test: Cell viability by PrestoBlue assay after transfection, HeLa cells; assay type: cell-based; settings: 4 h
# HEK293 cells = test: Cell viability by PrestoBlue assay after transfection, HEK cells; assay type: cell-based; settings: 4 h
Compound,% viability HeLa cells (HeLa cells) [%],% viability HEK cells (HEK293 cells) [%]
"CCCCCCCCCCCCCCCCCC(=O)NCCCC[C@H](NC(=O)[C@H](CCCCNC(=O)CCCCCCCCCCCCCCCCC)NC(=O)[C@H](CCCCNC(=O)[C@H](CC(C)C)NC(=O)[C@H](CCCCN)NC(=O)[C@H](CCCCNC(=O)[C@H](CC(C)C)NC(=O)[C@H](CCCCN)NC(=O)[C@H](CCCCNC(=O)[C@H](CC(C)C)NC(=O)[C@@H](N)CCCCN)NC(=O)[C@H](CC(C)C)NC(=O)[C@@H](N)CCCCN)NC(=O)[C@H](CC(C)C)NC(=O)[C@H](CCCCN)NC(=O)[C@H](CCCCNC(=O)[C@H](CC(C)C)NC(=O)[C@@H](N)CCCCN)NC(=O)[C@H](CC(C)C)NC(=O)[C@@H](N)CCCCN)NC(=O)[C@H](CC(C)C)NC(=O)[C@H](CCCCN)NC(=O)[C@H](CCCCNC(=O)[C@H](CC(C)C)NC(=O)[C@H](CCCCN)NC(=O)[C@H](CCCCNC(=O)[C@H](CC(C)C)NC(=O)[C@@H](N)CCCCN)NC(=O)[C@H](CC(C)C)NC(=O)[C@@H](N)CCCCN)NC(=O)[C@H](CC(C)C)NC(=O)[C@H](CCCCN)NC(=O)[C@H](CCCCNC(=O)[C@H](CC(C)C)NC(=O)[C@@H](N)CCCCN)NC(=O)[C@H](CC(C)C)NC(=O)[C@@H](N)CCCCN)C(N)=O [Z2] (I: H-KLK([Leu-Lys])KLKKLKK(Stearoyl)K(Stearoyl)-NH2 / II: H-KLK([Leu-Lys])KLKKL / III: H-KLK([Leu-Lys])KL / IV: H-KLK([Leu-Lys])KL; amide I:6-IV:C, I:9-II:C, II:6-III:C)",47 ± 3,79 ± 11
"CCCCCCCCCCCCCCCCCC(=O)NCCCC[C@@H](NC(=O)[C@@H](CCCCNC(=O)CCCCCCCCCCCCCCCCC)NC(=O)[C@@H](CCCCNC(=O)[C@@H](CC(C)C)NC(=O)[C@@H](CCCCN)NC(=O)[C@@H](CCCCNC(=O)[C@@H](CC(C)C)NC(=O)[C@@H](CCCCN)NC(=O)[C@@H](CCCCNC(=O)[C@@H](CC(C)C)NC(=O)[C@H](N)CCCCN)NC(=O)[C@@H](CC(C)C)NC(=O)[C@H](N)CCCCN)NC(=O)[C@@H](CC(C)C)NC(=O)[C@@H](CCCCN)NC(=O)[C@@H](CCCCNC(=O)[C@@H](CC(C)C)NC(=O)[C@H](N)CCCCN)NC(=O)[C@@H](CC(C)C)NC(=O)[C@H](N)CCCCN)NC(=O)[C@@H](CC(C)C)NC(=O)[C@@H](CCCCN)NC(=O)[C@@H](CCCCNC(=O)[C@@H](CC(C)C)NC(=O)[C@@H](CCCCN)NC(=O)[C@@H](CCCCNC(=O)[C@@H](CC(C)C)NC(=O)[C@H](N)CCCCN)NC(=O)[C@@H](CC(C)C)NC(=O)[C@H](N)CCCCN)NC(=O)[C@@H](CC(C)C)NC(=O)[C@@H](CCCCN)NC(=O)[C@@H](CCCCNC(=O)[C@@H](CC(C)C)NC(=O)[C@H](N)CCCCN)NC(=O)[C@@H](CC(C)C)NC(=O)[C@H](N)CCCCN)C(N)=O [Z27] (I: H-[dK][dL][dK]([dL-dK])[dK][dL][dK][dK][dL][dK][dK](Stearoyl)[dK](Stearoyl)-NH2 / II: H-[dK][dL][dK]([dL-dK])[dK][dL][dK][dK][dL] / III: H-[dK][dL][dK]([dL-dK])[dK][dL] / IV: H-[dK][dL][dK]([dL-dK])[dK][dL]; amide I:6-IV:C, I:9-II:C, II:6-III:C)",94 ± 5,74.8 ± 0.7
"CCCCCCCCCCCCCCCCCC(=O)NCCCC[C@@H](NC(=O)[C@@H](CCCCNC(=O)[C@@H](CC(C)C)NC(=O)[C@@H](CC(C)C)NC(=O)[C@@H](CCCCNC(=O)[C@@H](CC(C)C)NC(=O)[C@@H](CC(C)C)NC(=O)[C@@H](CCCCNC(=O)[C@@H](CC(C)C)NC(=O)[C@H](N)CCCNC(=N)N)NC(=O)[C@@H](CC(C)C)NC(=O)[C@H](N)CCCNC(=N)N)NC(=O)[C@@H](CC(C)C)NC(=O)[C@@H](CC(C)C)NC(=O)[C@@H](CCCCNC(=O)[C@@H](CC(C)C)NC(=O)[C@H](N)CCCNC(=N)N)NC(=O)[C@@H](CC(C)C)NC(=O)[C@H](N)CCCNC(=N)N)NC(=O)[C@@H](CC(C)C)NC(=O)[C@@H](CC(C)C)NC(=O)[C@@H](CCCCNC(=O)[C@@H](CC(C)C)NC(=O)[C@@H](CC(C)C)NC(=O)[C@@H](CCCCNC(=O)[C@@H](CC(C)C)NC(=O)[C@H](N)CCCNC(=N)N)NC(=O)[C@@H](CC(C)C)NC(=O)[C@H](N)CCCNC(=N)N)NC(=O)[C@@H](CC(C)C)NC(=O)[C@@H](CC(C)C)NC(=O)[C@@H](CCCCNC(=O)[C@@H](CC(C)C)NC(=O)[C@H](N)CCCNC(=N)N)NC(=O)[C@@H](CC(C)C)NC(=O)[C@H](N)CCCNC(=N)N)C(N)=O [Z37] (I: H-[dR][dL][dK]([dL-dR])[dL][dL][dK][dL][dL][dK][dK](Stearoyl)-NH2 / II: H-[dR][dL][dK]([dL-dR])[dL][dL][dK][dL][dL] / III: H-[dR][dL][dK]([dL-dR])[dL][dL] / IV: H-[dR][dL][dK]([dL-dR])[dL][dL]; amide I:6-IV:C, I:9-II:C, II:6-III:C)",95 ± 5,103 ± 1
"CCCCCCCCCCCCCCCCCC(=O)NCCCC[C@@H](NC(=O)[C@@H](CCCCNC(=O)[C@@H](CC(C)C)NC(=O)[C@@H](CCCNC(=N)N)NC(=O)[C@@H](CCCCNC(=O)[C@@H](CC(C)C)NC(=O)[C@@H](CCCNC(=N)N)NC(=O)[C@@H](CCCCNC(=O)[C@@H](CC(C)C)NC(=O)[C@H](N)CCCNC(=N)N)NC(=O)[C@@H](CC(C)C)NC(=O)[C@H](N)CCCNC(=N)N)NC(=O)[C@@H](CC(C)C)NC(=O)[C@@H](CCCNC(=N)N)NC(=O)[C@@H](CCCCNC(=O)[C@@H](CC(C)C)NC(=O)[C@H](N)CCCNC(=N)N)NC(=O)[C@@H](CC(C)C)NC(=O)[C@H](N)CCCNC(=N)N)NC(=O)[C@@H](CC(C)C)NC(=O)[C@@H](CCCNC(=N)N)NC(=O)[C@@H](CCCCNC(=O)[C@@H](CC(C)C)NC(=O)[C@@H](CCCNC(=N)N)NC(=O)[C@@H](CCCCNC(=O)[C@@H](CC(C)C)NC(=O)[C@H](N)CCCNC(=N)N)NC(=O)[C@@H](CC(C)C)NC(=O)[C@H](N)CCCNC(=N)N)NC(=O)[C@@H](CC(C)C)NC(=O)[C@@H](CCCNC(=N)N)NC(=O)[C@@H](CCCCNC(=O)[C@@H](CC(C)C)NC(=O)[C@H](N)CCCNC(=N)N)NC(=O)[C@@H](CC(C)C)NC(=O)[C@H](N)CCCNC(=N)N)C(=O)N[C@H](C)C(N)=O [Z35] (I: H-[dR][dL][dK]([dL-dR])[dR][dL][dK][dR][dL][dK][dK](Stearoyl)[dA]-NH2 / II: H-[dR][dL][dK]([dL-dR])[dR][dL][dK][dR][dL] / III: H-[dR][dL][dK]([dL-dR])[dR][dL] / IV: H-[dR][dL][dK]([dL-dR])[dR][dL]; amide I:6-IV:C, I:9-II:C, II:6-III:C)",94 ± 6,72 ± 5
"CCCCCCCCCCCCCCCC(=O)NCCCC[C@H](NC(=O)[C@H](CCCCNC(=O)[C@H](CC(C)C)NC(=O)[C@H](CCCCN)NC(=O)[C@H](CCCCNC(=O)[C@H](CC(C)C)NC(=O)[C@H](CCCCN)NC(=O)[C@H](CCCCNC(=O)[C@H](CC(C)C)NC(=O)[C@@H](N)CCCCN)NC(=O)[C@H](CC(C)C)NC(=O)[C@@H](N)CCCCN)NC(=O)[C@H](CC(C)C)NC(=O)[C@H](CCCCN)NC(=O)[C@H](CCCCNC(=O)[C@H](CC(C)C)NC(=O)[C@@H](N)CCCCN)NC(=O)[C@H](CC(C)C)NC(=O)[C@@H](N)CCCCN)NC(=O)[C@H](CC(C)C)NC(=O)[C@H](CCCCN)NC(=O)[C@H](CCCCNC(=O)[C@H](CC(C)C)NC(=O)[C@H](CCCCN)NC(=O)[C@H](CCCCNC(=O)[C@H](CC(C)C)NC(=O)[C@@H](N)CCCCN)NC(=O)[C@H](CC(C)C)NC(=O)[C@@H](N)CCCCN)NC(=O)[C@H](CC(C)C)NC(=O)[C@H](CCCCN)NC(=O)[C@H](CCCCNC(=O)[C@H](CC(C)C)NC(=O)[C@@H](N)CCCCN)NC(=O)[C@H](CC(C)C)NC(=O)[C@@H](N)CCCCN)C(N)=O [Z4] (I: H-KLK([Leu-Lys])KLKKLKK(Palmitoyl)-NH2 / II: H-KLK([Leu-Lys])KLKKL / III: H-KLK([Leu-Lys])KL / IV: H-KLK([Leu-Lys])KL; amide I:6-IV:C, I:9-II:C, II:6-III:C)",88 ± 11,89 ± 11
"CCCCCCCCCCCCCCCCCC(=O)NCCCC[C@H](NC(=O)[C@H](CCCCNC(=O)[C@H](CC(C)C)NC(=O)[C@H](CCCNC(=N)N)NC(=O)[C@H](CCCCNC(=O)[C@H](CC(C)C)NC(=O)[C@H](CCCNC(=N)N)NC(=O)[C@H](CCCCNC(=O)[C@H](CC(C)C)NC(=O)[C@@H](N)CCCNC(=N)N)NC(=O)[C@H](CC(C)C)NC(=O)[C@@H](N)CCCNC(=N)N)NC(=O)[C@H](CC(C)C)NC(=O)[C@H](CCCNC(=N)N)NC(=O)[C@H](CCCCNC(=O)[C@H](CC(C)C)NC(=O)[C@@H](N)CCCNC(=N)N)NC(=O)[C@H](CC(C)C)NC(=O)[C@@H](N)CCCNC(=N)N)NC(=O)[C@H](CC(C)C)NC(=O)[C@H](CCCNC(=N)N)NC(=O)[C@H](CCCCNC(=O)[C@H](CC(C)C)NC(=O)[C@H](CCCNC(=N)N)NC(=O)[C@H](CCCCNC(=O)[C@H](CC(C)C)NC(=O)[C@@H](N)CCCNC(=N)N)NC(=O)[C@H](CC(C)C)NC(=O)[C@@H](N)CCCNC(=N)N)NC(=O)[C@H](CC(C)C)NC(=O)[C@H](CCCNC(=N)N)NC(=O)[C@H](CCCCNC(=O)[C@H](CC(C)C)NC(=O)[C@@H](N)CCCNC(=N)N)NC(=O)[C@H](CC(C)C)NC(=O)[C@@H](N)CCCNC(=N)N)C(=O)N[C@@H](C)C(N)=O [Z25] (I: H-RLK([Leu-Arg])RLKRLKK(Stearoyl)A-NH2 / II: H-RLK([Leu-Arg])RLKRL / III: H-RLK([Leu-Arg])RL / IV: H-RLK([Leu-Arg])RL; amide I:6-IV:C, I:9-II:C, II:6-III:C)",104 ± 8,85 ± 2

# Source: article PMC11352961, “Peptide dendrimers transfecting CRISPR/Cas9 plasmid DNA: optimization and mechanism” (RSC Chemical Biology, 2024)
